In patent publication US11071731B2, “Allosteric modulators of the mu opioid receptor” (Chiromics, LLC, priority 2017, dated 2021):

Columns and labels:
MOR = MOR (Homo sapiens, UniProt P35372); format: cell-based; settings: cAMP; EC20 EM2 agonism of MOR
ICR rats = assay: Warm water tail-flick assay with intrathecal exogenous EM1; format: in vivo
Method: The warm water tail-flick assay was chosen as the acute pain model for the reasons described above. […] Przewlocka et al., (1999), supra. First, minimum and sub-efficacious dose of EM1, applied via intrathecal injection to rats, were identified. The values obtained for the minimum (3 ug/kg) and sub-efficacious dose of EM1 (1 ug/kg) are in agreement with those found in the literature. Horvath (2000), supra. In addition, the time required for maximal response to an intrathecal injection of EM1 to be observed, as well as the time required for a return to basal levels of antinociception, were determined and likewise found to be in agreement with those found in the literature.
. For these experiments, the delay in tail flick induced by EM1 alone was compared to the delay in tail flick when compound 9 was dosed in ICR-rats in combination with intrathecal administration of minimum and sub-efficacious doses of EM1. […]; These effects might be due to any of the following: Ton[Endomorphin], KElim[Endomorphin], Toff[Endomorphin], KI[Endomorphin], and possibly additional mechanisms.
[…]. The ability to rescue a sub-therapeutic dose of the endogenous ligand in a dose- and time-dependent manner with a subtype selective MOR PAM has significant implications for the clinical viability of the use of MOR PAMs in acute and chronic pain settings.

[1] = Plasma concentration time-course after SC or IP dosing; format: in vivo; settings: 15 mg/kg, intraperitoneal or subcutaneous, CD-1 mice, blood samples
Method: To be useful as a therapeutic, a MOR PAM must not only be able to activate endogenous and non-endogenous orthosteric ligands of the MOR, it must also persist in the body in concentrations sufficient to exert its allosteric effect. To test intracorporeal persistence, murine models were chosen, based on the preponderance of data available linking endogenous opioids to analgesic mechanisms. Compound 9 (Table 10) was formulated for dosing in CD-1 mice. Two mice per group were tested and each group was administered 15 mg/kg of the compound. Concentrations of the compound were measured by mass spectrometry of blood samples.

Chain of MOR (P35372 whole entry): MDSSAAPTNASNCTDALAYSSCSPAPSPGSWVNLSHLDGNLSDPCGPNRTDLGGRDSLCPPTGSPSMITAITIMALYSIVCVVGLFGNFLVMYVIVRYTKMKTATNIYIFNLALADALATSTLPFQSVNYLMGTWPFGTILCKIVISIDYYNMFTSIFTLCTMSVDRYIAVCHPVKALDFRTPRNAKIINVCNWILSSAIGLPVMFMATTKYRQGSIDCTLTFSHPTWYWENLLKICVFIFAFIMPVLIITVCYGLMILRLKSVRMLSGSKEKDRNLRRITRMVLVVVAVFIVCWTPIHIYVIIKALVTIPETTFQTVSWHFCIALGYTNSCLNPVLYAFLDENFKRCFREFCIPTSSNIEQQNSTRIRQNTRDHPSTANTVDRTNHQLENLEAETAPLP

## Fc1cnc(Cl)nc1N1CCCCC1c1cccc(C(F)(F)F)c1 (single isomer, unassigned) [compound 9]
MOR
  Max. Response: 80
ICR rats; rat, in vivo
  effect on antinociception of a minimally efficacious dose of EM1: potentiates the effect of suboptimal doses of EM-1
  effect on antinociception of a sub-efficacious dose of EM1: potentiates the effect of sub-efficaceous doses of the opioid
ICR rats; tail-flick, EM1 3 μg intrathecal (FIG. 12C)
  αβ product, in vivo effects fit: 31.5
[1]
  exposure and half-life: exposures and an a half-life appropriate for in vivo studies
